Data: the supplement of paper PMC10307832

Experiments:
Experiment in all cases: relative viability (nuclei count vs DMSO), 5 days (fraction); higher = more cells survive
Kobe2602 + Phenformin = compound: C1=CC(=CC=C1NC(=S)NNC2=C(C=C(C=C2[N+](=O)[O-])C(F)(F)F)[N+](=O)[O-])F [Kobe2602] + N=C(N)NC(=N)NCCc1ccccc1 [Phenformin] (partner 250 µM)
Summary of the method: (§1)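 Lung cancer cell lines were pin-tool dosed in 1536-well plates on the day after seeding, with either a lone drug or a fixed anchor-drug dose plus five library-drug doses (not always all listed) in √10 steps. Nuclei were counted on 4× images after 5 days. Relative viability is the ratio of treated-well to vehicle-well nuclei counts, with each value a median of duplicate plates.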

Kobe2602 + Decitabine = compound: C1=CC(=CC=C1NC(=S)NNC2=C(C=C(C=C2[N+](=O)[O-])C(F)(F)F)[N+](=O)[O-])F [Kobe2602] + Nc1ncn([C@H]2C[C@H](O)[C@@H](CO)O2)c(=O)n1 [Decitabine] (partner 2 µM)
Summary of the method: as §1

Cabozantinib + Alpelisib = compound: COc1cc2nccc(Oc3ccc(NC(=O)C4(C(=O)Nc5ccc(F)cc5)CC4)cc3)c2cc1OC [Cabozantinib] + Cc1nc(NC(=O)N2CCC[C@H]2C(N)=O)sc1-c1ccnc(C(C)(C)C(F)(F)F)c1 [Alpelisib] (partner 2 µM)
Summary of the method: as §1

Zosuquidar + Lapatinib = compound: O[C@@H](COc1cccc2ncccc12)CN1CCN([C@@H]2c3ccccc3[C@@H]3[C@H](c4ccccc42)C3(F)F)CC1 [Zosuquidar] + CS(=O)(=O)CCNCc1ccc(-c2ccc3ncnc(Nc4ccc(OCc5cccc(F)c5)c(Cl)c4)c3c2)o1 [Lapatinib] (partner 2 µM)
Summary of the method: as §1

Cell Line	relative viability (Kobe2602 + Phenformin; first compound 0.2 µM)	relative viability (Kobe2602 + Phenformin; first compound 0.6325 µM)	relative viability (Kobe2602 + Phenformin; first compound 2 µM)	relative viability (Kobe2602 + Phenformin; first compound 6.325 µM)	relative viability (Kobe2602 + Phenformin; first compound 20 µM)	relative viability (Kobe2602 + Decitabine; first compound 0.2 µM)	relative viability (Kobe2602 + Decitabine; first compound 0.6325 µM)	relative viability (Kobe2602 + Decitabine; first compound 2 µM)	relative viability (Kobe2602 + Decitabine; first compound 6.325 µM)	relative viability (Kobe2602 + Decitabine; first compound 20 µM)	relative viability (Cabozantinib + Alpelisib; first compound 0.02 µM)	relative viability (Cabozantinib + Alpelisib; first compound 0.06325 µM)	relative viability (Cabozantinib + Alpelisib; first compound 0.2 µM)	relative viability (Cabozantinib + Alpelisib; first compound 0.6325 µM)	relative viability (Cabozantinib + Alpelisib; first compound 2 µM)	relative viability (Zosuquidar + Lapatinib; first compound 0.01 µM)	relative viability (Zosuquidar + Lapatinib; first compound 0.03162 µM)	relative viability (Zosuquidar + Lapatinib; first compound 0.1 µM)	relative viability (Zosuquidar + Lapatinib; first compound 0.3162 µM)	relative viability (Zosuquidar + Lapatinib; first compound 1 µM)
EMC-BAC-2	0.575	0.591	0.508	0.538	0.553	0.973	0.961	0.961	1.01	0.973	0.815	0.804	0.744	0.739	0.737	0.852	0.925	0.816	0.986	0.954
NCI-H1395	0.484	0.435	0.453	0.451	0.456	0.764	0.752	0.712	0.687	0.68	1.13	1.21	1.06	1.13	1.06	1.03	0.903	0.957	1.54	1.04
NCI-H23	0.75	0.782	0.762	0.723	0.814	0.2	0.345	0.316	0.304	0.39		0.794	0.716	0.646	0.545	1.15	1.16	1.38	1.23	1.15
NCI-H322M	0.798	0.857	0.808	0.826	0.771	0.707	0.72	0.693	0.741	0.718	0.77	0.881		0.846	0.773	0.552	0.63	0.417	0.582	0.567
NCI-H2126	0.552	0.53	0.521	0.513	0.494	0.675	0.576	0.551	0.619	0.577	0.798	0.764	0.73	0.755	0.765	0.75	0.753	0.639	0.755	0.733
